Results from EPA's aquatic toxicity sets.

Experiments:
Daphnia magna = assay: 48 h LC50 (-log10 mol/L); higher = more toxic
Pimephales promelas = assay: 96 h LC50 (-log10 mol/L); higher = more toxic

## ClC1=C(Cl)[C@]2(Cl)[C@H]3[C@H]([C@H](Cl)[C@]4(Cl)O[C@H]34)[C@@]1(Cl)C2(Cl)Cl
Daphnia magna
  48 h LC50 (-log10 mol/L): 5.51
Pimephales promelas
  96 h LC50 (-log10 mol/L): 8.1

## CCCCCCCCn1sccc1=O
Daphnia magna
  48 h LC50 (-log10 mol/L): 6.07
Pimephales promelas
  96 h LC50 (-log10 mol/L): 6.18

## CCc1ccccc1
Daphnia magna
  48 h LC50 (-log10 mol/L): 4.5
Pimephales promelas
  96 h LC50 (-log10 mol/L): 3.95

## c1ccc2c(c1)-c1cccc3cccc-2c13
Daphnia magna
  48 h LC50 (-log10 mol/L): 6.28
Pimephales promelas
  96 h LC50 (-log10 mol/L): 6.77

## ClC=C(Cl)Cl
Daphnia magna
  48 h LC50 (-log10 mol/L): 3.48
Pimephales promelas
  96 h LC50 (-log10 mol/L): 3.47

## CC(C)CO
Daphnia magna
  48 h LC50 (-log10 mol/L): 1.82
Pimephales promelas
  96 h LC50 (-log10 mol/L): 1.7

## CCCCOC(=O)c1ccccc1C(=O)OCc1ccccc1
Daphnia magna
  48 h LC50 (-log10 mol/L): 5.19
Pimephales promelas
  96 h LC50 (-log10 mol/L): 5.22

## COP(=S)(OC)SCN1C(=O)c2ccccc2C1=O
Daphnia magna
  48 h LC50 (-log10 mol/L): 5.6
Pimephales promelas
  96 h LC50 (-log10 mol/L): 4.59

## O=C1C2(Cl)C3(Cl)C4(Cl)C(Cl)(Cl)C5(Cl)C3(Cl)C1(Cl)C5(Cl)C24Cl (stereo unspecified)
Daphnia magna
  48 h LC50 (-log10 mol/L): 6.39
Pimephales promelas
  96 h LC50 (-log10 mol/L): 6.11

## C1=CC2C3C=CC(C3)C2C1 (stereo unspecified)
Daphnia magna
  48 h LC50 (-log10 mol/L): 4.1
Pimephales promelas
  96 h LC50 (-log10 mol/L): 3.41

## O=C(Nc1ccc(Cl)cc1)Nc1ccc(Cl)c(Cl)c1
Daphnia magna
  48 h LC50 (-log10 mol/L): 7.48
Pimephales promelas
  96 h LC50 (-log10 mol/L): 6.54

## ClC(Cl)=C(Cl)Cl
Daphnia magna
  48 h LC50 (-log10 mol/L): 4
Pimephales promelas
  96 h LC50 (-log10 mol/L): 3.96

## C1CCCCC1
Daphnia magna
  48 h LC50 (-log10 mol/L): 4.34
Pimephales promelas
  96 h LC50 (-log10 mol/L): 3.3

## CNC(=O)O/N=C/C(C)(C)SC
Daphnia magna
  48 h LC50 (-log10 mol/L): 5.55
Pimephales promelas
  96 h LC50 (-log10 mol/L): 5.17

## O=C(O)COc1ccc(Cl)cc1Cl
Daphnia magna
  48 h LC50 (-log10 mol/L): 3.78
Pimephales promelas
  96 h LC50 (-log10 mol/L): 2.92

## ClCCl
Daphnia magna
  48 h LC50 (-log10 mol/L): 2.66
Pimephales promelas
  96 h LC50 (-log10 mol/L): 2.42

## Clc1ccc(Cl)c(-c2ccccc2Cl)c1
Daphnia magna
  48 h LC50 (-log10 mol/L): 6.67
Pimephales promelas
  96 h LC50 (-log10 mol/L): 6.88

## Oc1ccc2ccccc2c1
Daphnia magna
  48 h LC50 (-log10 mol/L): 4.61
Pimephales promelas
  96 h LC50 (-log10 mol/L): 4.62

## CC(C)(c1ccc(O)cc1)c1ccc(O)cc1
Daphnia magna
  48 h LC50 (-log10 mol/L): 4.3
Pimephales promelas
  96 h LC50 (-log10 mol/L): 4.69

## CC=O
Daphnia magna
  48 h LC50 (-log10 mol/L): 0.55
Pimephales promelas
  96 h LC50 (-log10 mol/L): 3.08

## COP(=S)(OC)Oc1ccc([N+](=O)[O-])c(C)c1
Daphnia magna
  48 h LC50 (-log10 mol/L): 7.67
Pimephales promelas
  96 h LC50 (-log10 mol/L): 4.81

## CC1(C)C(C=C(Cl)Cl)C1C(=O)OC(C#N)c1ccc(F)c(Oc2ccccc2)c1 (stereo unspecified)
Daphnia magna
  48 h LC50 (-log10 mol/L): 9.13
Pimephales promelas
  96 h LC50 (-log10 mol/L): 8.6

## ClC(Cl)C(Cl)Cl
Daphnia magna
  48 h LC50 (-log10 mol/L): 3.46
Pimephales promelas
  96 h LC50 (-log10 mol/L): 3.92

## OCCOCCOCCO
Daphnia magna
  48 h LC50 (-log10 mol/L): 0.46
Pimephales promelas
  96 h LC50 (-log10 mol/L): 0.309

## c1ccc(Oc2ccccc2)cc1
Daphnia magna
  48 h LC50 (-log10 mol/L): 5.43
Pimephales promelas
  96 h LC50 (-log10 mol/L): 4.63

## Cc1ccc([N+](=O)[O-])cc1
Daphnia magna
  48 h LC50 (-log10 mol/L): 4.01
Pimephales promelas
  96 h LC50 (-log10 mol/L): 3.44

## CCNCC
Daphnia magna
  48 h LC50 (-log10 mol/L): 3.12
Pimephales promelas
  96 h LC50 (-log10 mol/L): 1.93

## ClCC(Cl)Cl
Daphnia magna
  48 h LC50 (-log10 mol/L): 3.49
Pimephales promelas
  96 h LC50 (-log10 mol/L): 3.21

## CCOCC
Daphnia magna
  48 h LC50 (-log10 mol/L): 1.73
Pimephales promelas
  96 h LC50 (-log10 mol/L): 1.46

## Clc1cccc(-c2ccccc2)c1
Daphnia magna
  48 h LC50 (-log10 mol/L): 5.64
Pimephales promelas
  96 h LC50 (-log10 mol/L): 4.38

## S=c1[nH]c2ccccc2s1
Daphnia magna
  48 h LC50 (-log10 mol/L): 4.49
Pimephales promelas
  96 h LC50 (-log10 mol/L): 4.18

## Cc1ccccc1C
Daphnia magna
  48 h LC50 (-log10 mol/L): 3.79
Pimephales promelas
  96 h LC50 (-log10 mol/L): 3.81

## CC(Cl)(Cl)Cl
Daphnia magna
  48 h LC50 (-log10 mol/L): 3.72
Pimephales promelas
  96 h LC50 (-log10 mol/L): 3.4

## CC(Cl)CCl (stereo unspecified)
Daphnia magna
  48 h LC50 (-log10 mol/L): 3.34
Pimephales promelas
  96 h LC50 (-log10 mol/L): 2.93

## O=[N+]([O-])OCC(CO[N+](=O)[O-])O[N+](=O)[O-]
Daphnia magna
  48 h LC50 (-log10 mol/L): 3.85
Pimephales promelas
  96 h LC50 (-log10 mol/L): 4.92

## CCCN(CCC)c1c([N+](=O)[O-])cc(C(F)(F)F)cc1[N+](=O)[O-]
Daphnia magna
  48 h LC50 (-log10 mol/L): 6.24
Pimephales promelas
  96 h LC50 (-log10 mol/L): 6.5

## NC(=O)c1c(Cl)cccc1Cl
Daphnia magna
  48 h LC50 (-log10 mol/L): 2.35
Pimephales promelas
  96 h LC50 (-log10 mol/L): 2.61

## CCC(O)C(C)CO (stereo unspecified)
Daphnia magna
  48 h LC50 (-log10 mol/L): 1.22
Pimephales promelas
  96 h LC50 (-log10 mol/L): 1.13

## COP(=S)(OC)Oc1ccc(SC)c(C)c1
Daphnia magna
  48 h LC50 (-log10 mol/L): 6.79
Pimephales promelas
  96 h LC50 (-log10 mol/L): 4.94

## CCOP(=S)(OCC)Oc1ccc([N+](=O)[O-])cc1
Daphnia magna
  48 h LC50 (-log10 mol/L): 8.15
Pimephales promelas
  96 h LC50 (-log10 mol/L): 5.32

## CCC1(c2ccccc2)C(=O)NC(=O)NC1=O
Daphnia magna
  48 h LC50 (-log10 mol/L): 2.2
Pimephales promelas
  96 h LC50 (-log10 mol/L): 2.68

## Clc1ccccc1-c1ccccc1
Daphnia magna
  48 h LC50 (-log10 mol/L): 5.42
Pimephales promelas
  96 h LC50 (-log10 mol/L): 4.67

## CC(C)[C@H](C(=O)O[C@H](C#N)c1cccc(Oc2ccccc2)c1)c1ccc(Cl)cc1
Daphnia magna
  48 h LC50 (-log10 mol/L): 8.58
Pimephales promelas
  96 h LC50 (-log10 mol/L): 9.26

## Oc1c(Cl)cc(Cl)c(Cl)c1Cl
Daphnia magna
  48 h LC50 (-log10 mol/L): 6.11
Pimephales promelas
  96 h LC50 (-log10 mol/L): 5.35

## ClC1=C(Cl)[C@]2(Cl)[C@@H]3[C@@H]4C[C@@H]([C@H]5O[C@@H]45)[C@@H]3[C@@]1(Cl)C2(Cl)Cl
Daphnia magna
  48 h LC50 (-log10 mol/L): 6.51
Pimephales promelas
  96 h LC50 (-log10 mol/L): 7.21

## Nc1c(Cl)c(Cl)nc(C(=O)O)c1Cl
Daphnia magna
  48 h LC50 (-log10 mol/L): 3.64
Pimephales promelas
  96 h LC50 (-log10 mol/L): 3.64

## OCCO
Daphnia magna
  48 h LC50 (-log10 mol/L): 0.122
Pimephales promelas
  96 h LC50 (-log10 mol/L): 0.037

## CNC(=O)ON=C(C)SC
Daphnia magna
  48 h LC50 (-log10 mol/L): 6.96
Pimephales promelas
  96 h LC50 (-log10 mol/L): 4.89

## CCN(CC)c1nc(C)cc(OP(=S)(OC)OC)n1
Daphnia magna
  48 h LC50 (-log10 mol/L): 9.14
Pimephales promelas
  96 h LC50 (-log10 mol/L): 5.09

## C=C(C)[C@H]1Cc2c(ccc3c2O[C@@H]2COc4cc(OC)c(OC)cc4[C@@H]2C3=O)O1
Daphnia magna
  48 h LC50 (-log10 mol/L): 8.03
Pimephales promelas
  96 h LC50 (-log10 mol/L): 7.82

## CCOP(=S)(OCC)Oc1cc(C)nc(C(C)C)n1
Daphnia magna
  48 h LC50 (-log10 mol/L): 8.56
Pimephales promelas
  96 h LC50 (-log10 mol/L): 4.81

## CC(=O)CC(C)=O
Daphnia magna
  48 h LC50 (-log10 mol/L): 3.32
Pimephales promelas
  96 h LC50 (-log10 mol/L): 2.85

## COP(=S)(OC)Oc1ccc([N+](=O)[O-])cc1
Daphnia magna
  48 h LC50 (-log10 mol/L): 7.34
Pimephales promelas
  96 h LC50 (-log10 mol/L): 4.51

## ClC(Cl)C(Cl)(Cl)Cl
Daphnia magna
  48 h LC50 (-log10 mol/L): 4.19
Pimephales promelas
  96 h LC50 (-log10 mol/L): 4.43

## C=CC#N
Daphnia magna
  48 h LC50 (-log10 mol/L): 3.78
Pimephales promelas
  96 h LC50 (-log10 mol/L): 3.57

## CCOP(=O)(OCC)Oc1ccc([N+](=O)[O-])cc1
Daphnia magna
  48 h LC50 (-log10 mol/L): 9.14
Pimephales promelas
  96 h LC50 (-log10 mol/L): 5.98

## CCCCC(CC)COC(=O)c1ccccc1C(=O)OCC(CC)CCCC (stereo unspecified)
Daphnia magna
  48 h LC50 (-log10 mol/L): 4.55
Pimephales promelas
  96 h LC50 (-log10 mol/L): 2.55

## CCOP(=S)(OCC)SCSC(C)(C)C
Daphnia magna
  48 h LC50 (-log10 mol/L): 8.21
Pimephales promelas
  96 h LC50 (-log10 mol/L): 6.81

## CCCN(CCC)c1c([N+](=O)[O-])cc(C(C)C)cc1[N+](=O)[O-]
Daphnia magna
  48 h LC50 (-log10 mol/L): 7.01
Pimephales promelas
  96 h LC50 (-log10 mol/L): 5.85

## CC(N)=S
Daphnia magna
  48 h LC50 (-log10 mol/L): 3.64
Pimephales promelas
  96 h LC50 (-log10 mol/L): 2.44

## CC(C)c1ccc2c(c1)CC[C@H]1[C@](C)(C(=O)O)CCC[C@]21C
Daphnia magna
  48 h LC50 (-log10 mol/L): 4.56
Pimephales promelas
  96 h LC50 (-log10 mol/L): 4.97

## c1ccc(C2CO2)cc1 (stereo unspecified)
Daphnia magna
  48 h LC50 (-log10 mol/L): 4.02
Pimephales promelas
  96 h LC50 (-log10 mol/L): 4

## CCOC(=O)CC(SP(=S)(OC)OC)C(=O)OCC (stereo unspecified)
Daphnia magna
  48 h LC50 (-log10 mol/L): 8.35
Pimephales promelas
  96 h LC50 (-log10 mol/L): 4.42

## COP(=O)(OC)C(O)C(Cl)(Cl)Cl (stereo unspecified)
Daphnia magna
  48 h LC50 (-log10 mol/L): 7.7
Pimephales promelas
  96 h LC50 (-log10 mol/L): 3.37

## O=C(O)CNCP(=O)(O)O
Daphnia magna
  48 h LC50 (-log10 mol/L): 3.91
Pimephales promelas
  96 h LC50 (-log10 mol/L): 4.57

## ClCC(Cl)CCl
Daphnia magna
  48 h LC50 (-log10 mol/L): 3.65
Pimephales promelas
  96 h LC50 (-log10 mol/L): 3.41

## CC1=CC(=O)CC(C)(C)C1
Daphnia magna
  48 h LC50 (-log10 mol/L): 3.06
Pimephales promelas
  96 h LC50 (-log10 mol/L): 2.74

## Clc1ccc(C(c2ccc(Cl)cc2)C(Cl)(Cl)Cl)cc1
Daphnia magna
  48 h LC50 (-log10 mol/L): 8.27
Pimephales promelas
  96 h LC50 (-log10 mol/L): 7.27
